Measured values reported in ChEMBL document CHEMBL1137071, “Phenyl thiazolyl urea and carbamate derivatives as new inhibitors of bacterial cell-wall biosynthesis” (Bioorg Med Chem Lett, 2004).
Converted amounts (≈) assume the structure as drawn.

Tests used:
Format in all cases: functional
Streptococcus pneumoniae [1] = test: Antimicrobial activity against Streptococcus pneumoniae GC1894 (PRSP)
Enterococcus faecalis [2] = test: Antimicrobial activity against Enterococcus faecalis GC 4555 (ATCC)
Escherichia coli [3] = test: Antimicrobial activity against Escherichia coli GC 4560
Enterococcus faecalis [4] = test: Antimicrobial activity against Enterococcus faecalis GC 2242 (VRE)
Escherichia coli [5] = test: Antimicrobial activity against Escherichia coli GC 4559
Staphylococcus aureus [6] = test: Antimicrobial activity against Staphylococcus aureus GC 1131 (MRSA)
[7] = Antimicrobial activity against MSCNS (methicillin-susceptible coagulase-negative staphylococci) GC 646; conditions: Staphylococcus
Streptococcus pneumoniae [8] = test: Antimicrobial activity against Streptococcus pneumoniae GC1894 (PRSP) in the presence of 4% bovine serum albumin
Staphylococcus aureus [9] = test: Antimicrobial activity against Staphylococcus aureus GC 4543 (MSSA)
[10] = Inhibitory activity against MurB from Escherichia coli
Staphylococcus aureus [11] = test: Antimicrobial activity against Staphylococcus aureus GC 2216 (ATCC)
[12] = Inhibitory activity against MurA from Escherichia coli
[13] = Inhibitory activity against MurB from Staphylococcus aureus

Work on `CN[C@H](CC(C)C)C(=O)N[C@H]1C(=O)N[C@@H](CC(N)=O)C(=O)N[C@H]2C(=O)N[C@H]3C(=O)N[C@H](C(=O)N[C@H](C(=O)O)c4cc(O)cc(O)c4-c4cc3ccc4O)[C@H](O)c3ccc(c(Cl)c3)Oc3cc2cc(c3O[C@@H]2O[C@H](CO)[C@@H](O)[C@H](O)[C@H]2O[C@H]2C[C@](C)(N)[C@H](O)[C@H](C)O2)Oc2ccc(cc2Cl)[C@H]1O` [VANCOMYCIN] yielded an MIC (Streptococcus pneumoniae [1]) of less than 0.12 µg/mL, an MIC (Enterococcus faecalis [2]) of 2 µg/mL (≈ 1.38 µM) and an MIC (Escherichia coli [3]) of 0.25 µg/mL (≈ 0.173 µM). The MIC (Enterococcus faecalis [4]) was greater than 128 µg/mL and the MIC (Escherichia coli [5]) was greater than 128 µg/mL.
Compound `CC(C)(C)c1nc(NC(=O)Nc2ccc(F)c(F)c2)sc1C#N` has an MIC (Staphylococcus aureus [6]) of less than 0.12 µg/mL, an MIC [7] of 0.5 µg/mL (≈ 1.49 µM) and an MIC (Streptococcus pneumoniae [1]) of less than 0.12 µg/mL. The MIC (Streptococcus pneumoniae [8]) was 128 µg/mL, the MIC (Enterococcus faecalis [2]) was 1 µg/mL (≈ 2.97 µM) and the MIC (Escherichia coli [3]) was 1 µg/mL (≈ 2.97 µM). For the same compound, the MIC (Enterococcus faecalis [4]) was 0.5 µg/mL (≈ 1.49 µM), the MIC (Staphylococcus aureus [9]) was less than 0.12 µg/mL and the IC50 [10] was greater than 25 µg/mL. The MIC (Staphylococcus aureus [11]) was less than 0.12 µg/mL, the MIC (Escherichia coli [5]) was greater than 128 µg/mL and the IC50 [12] was greater than 25 µg/mL.
`CCOc1nc(NC(=O)Nc2ccc(Cl)c(Cl)c2)sc1C#N` showed an MIC (Staphylococcus aureus [6]) of 1 µg/mL (≈ 2.8 µM), an MIC [7] of 0.5 µg/mL (≈ 1.4 µM) and an MIC (Streptococcus pneumoniae [1]) of less than 0.12 µg/mL. The MIC (Streptococcus pneumoniae [8]) was 128 µg/mL, the MIC (Enterococcus faecalis [2]) was greater than 128 µg/mL and the MIC (Escherichia coli [3]) was 0.5 µg/mL (≈ 1.4 µM). For the same compound, the MIC (Enterococcus faecalis [4]) was 0.5 µg/mL (≈ 1.4 µM), the MIC (Staphylococcus aureus [9]) was 0.5 µg/mL (≈ 1.4 µM) and the IC50 [10] was 23 µg/mL (≈ 64.4 µM). The MIC (Staphylococcus aureus [11]) was 0.5 µg/mL (≈ 1.4 µM), the MIC (Escherichia coli [5]) was greater than 128 µg/mL and the IC50 [12] was greater than 25 µg/mL.
`CC(C)(C)c1nc(NC(=O)Nc2ccc(Cl)c(Cl)c2)sc1C#N` gave an MIC (Staphylococcus aureus [6]) of less than 0.12 µg/mL, an MIC [7] of less than 0.12 µg/mL and an MIC (Streptococcus pneumoniae [1]) of less than 0.12 µg/mL. For the same compound, the MIC (Streptococcus pneumoniae [8]) was 128 µg/mL, the MIC (Enterococcus faecalis [2]) was 0.25 µg/mL (≈ 0.677 µM) and the MIC (Escherichia coli [3]) was 0.5 µg/mL (≈ 1.35 µM). It also gave an MIC (Enterococcus faecalis [4]) of less than 0.12 µg/mL, an MIC (Staphylococcus aureus [9]) of less than 0.12 µg/mL and an IC50 [10] of 6.2 µg/mL (≈ 16.8 µM). The IC50 [13] was 2.8 µg/mL (≈ 7.58 µM), the MIC (Staphylococcus aureus [11]) was less than 0.12 µg/mL and the MIC (Escherichia coli [5]) was greater than 128 µg/mL. It also gave an IC50 [12] of 3.3 µg/mL (≈ 8.94 µM).
Compound `N#Cc1cnc(NC(=O)Nc2ccc(F)c(F)c2)s1` has an MIC (Staphylococcus aureus [6]) of 4 µg/mL (≈ 14.3 µM), an MIC [7] of 4 µg/mL (≈ 14.3 µM) and an MIC (Streptococcus pneumoniae [1]) of 0.5 µg/mL (≈ 1.78 µM). The MIC (Streptococcus pneumoniae [8]) was 64 µg/mL, the MIC (Enterococcus faecalis [2]) was 4 µg/mL (≈ 14.3 µM) and the MIC (Escherichia coli [3]) was 4 µg/mL (≈ 14.3 µM). It also gave an MIC (Enterococcus faecalis [4]) of 4 µg/mL (≈ 14.3 µM), an MIC (Staphylococcus aureus [9]) of 2 µg/mL (≈ 7.14 µM) and an IC50 [10] of 19 µg/mL (≈ 67.8 µM). It also gave an MIC (Staphylococcus aureus [11]) of 4 µg/mL (≈ 14.3 µM), an MIC (Escherichia coli [5]) of 8 µg/mL (≈ 28.5 µM) and an IC50 [12] greater than 25 µg/mL.
`N#Cc1csc(NC(=O)Nc2ccc(Cl)c(Cl)c2)n1` showed an MIC (Staphylococcus aureus [6]) of 8 µg/mL (≈ 25.5 µM), an MIC [7] of 4 µg/mL (≈ 12.8 µM) and an MIC (Streptococcus pneumoniae [1]) of less than 0.12 µg/mL. The MIC (Streptococcus pneumoniae [8]) was 128 µg/mL, the MIC (Enterococcus faecalis [2]) was 8 µg/mL (≈ 25.5 µM) and the MIC (Escherichia coli [3]) was 8 µg/mL (≈ 25.5 µM). The MIC (Enterococcus faecalis [4]) was 2 µg/mL (≈ 6.39 µM), the MIC (Staphylococcus aureus [9]) was 4 µg/mL (≈ 12.8 µM) and the IC50 [10] was greater than 25 µg/mL. The IC50 [13] was 14 µg/mL (≈ 44.7 µM), the MIC (Staphylococcus aureus [11]) was 4 µg/mL (≈ 12.8 µM) and the MIC (Escherichia coli [5]) was greater than 128 µg/mL. The IC50 [12] was greater than 25 µg/mL.
`Cc1ccc(NC(=O)Nc2nc(C(C)(C)C)c(C#N)s2)cc1C` showed an MIC (Staphylococcus aureus [6]) of 0.5 µg/mL (≈ 1.52 µM), an MIC [7] of 0.5 µg/mL (≈ 1.52 µM) and an MIC (Streptococcus pneumoniae [1]) of less than 0.12 µg/mL. It also gave an MIC (Streptococcus pneumoniae [8]) of 128 µg/mL, an MIC (Enterococcus faecalis [2]) of 0.5 µg/mL (≈ 1.52 µM) and an MIC (Escherichia coli [3]) of 2 µg/mL (≈ 6.09 µM). For the same compound, the MIC (Enterococcus faecalis [4]) was 0.5 µg/mL (≈ 1.52 µM), the MIC (Staphylococcus aureus [9]) was 0.25 µg/mL (≈ 0.761 µM) and the IC50 [10] was 6.2 µg/mL (≈ 18.9 µM). The IC50 [13] was 6.3 µg/mL (≈ 19.2 µM), the MIC (Staphylococcus aureus [11]) was 0.25 µg/mL (≈ 0.761 µM) and the MIC (Escherichia coli [5]) was greater than 128 µg/mL. For the same compound, the IC50 [12] was greater than 25 µg/mL.
In the case of `CC(C)COc1nc(NC(=O)Nc2ccc(Cl)c(Cl)c2)sc1C#N`, the MIC (Staphylococcus aureus [6]) is reported as 0.5 µg/mL (≈ 1.3 µM), the MIC [7] is reported as 0.25 µg/mL (≈ 0.649 µM) and the MIC (Streptococcus pneumoniae [1]) is reported as less than 0.12 µg/mL. For the same compound, the MIC (Streptococcus pneumoniae [8]) was 128 µg/mL, the MIC (Enterococcus faecalis [2]) was 0.25 µg/mL (≈ 0.649 µM) and the MIC (Escherichia coli [3]) was greater than 128 µg/mL. The MIC (Enterococcus faecalis [4]) was 0.25 µg/mL (≈ 0.649 µM), the MIC (Staphylococcus aureus [9]) was 0.25 µg/mL (≈ 0.649 µM) and the IC50 [10] was 5.8 µg/mL (≈ 15.1 µM). It also gave an MIC (Staphylococcus aureus [11]) of 0.5 µg/mL (≈ 1.3 µM), an MIC (Escherichia coli [5]) greater than 128 µg/mL and an IC50 [12] greater than 25 µg/mL.
`COc1nc(NC(=O)Nc2ccc(Cl)c(Cl)c2)sc1C#N` showed an MIC (Staphylococcus aureus [6]) greater than 128 µg/mL, an MIC [7] greater than 128 µg/mL and an MIC (Streptococcus pneumoniae [1]) greater than 128 µg/mL. It also gave an MIC (Streptococcus pneumoniae [8]) greater than 128 µg/mL, an MIC (Enterococcus faecalis [2]) of 32 µg/mL (≈ 93.2 µM) and an MIC (Escherichia coli [3]) greater than 128 µg/mL. It also gave an MIC (Enterococcus faecalis [4]) of 4 µg/mL (≈ 11.7 µM), an MIC (Staphylococcus aureus [9]) greater than 128 µg/mL and an IC50 [10] of 9.8 µg/mL (≈ 28.6 µM). The MIC (Staphylococcus aureus [11]) was greater than 128 µg/mL, the MIC (Escherichia coli [5]) was greater than 128 µg/mL and the IC50 [12] was 21.6 µg/mL (≈ 62.9 µM).
Work on `CC(C)(C)c1nc(NC(=O)OCc2ccc(Cl)c(Cl)c2)sc1C#N` yielded an MIC (Staphylococcus aureus [6]) of 2 µg/mL (≈ 5.2 µM), an MIC [7] greater than 128 µg/mL and an MIC (Streptococcus pneumoniae [1]) of 0.25 µg/mL (≈ 0.651 µM). For the same compound, the MIC (Streptococcus pneumoniae [8]) was greater than 128 µg/mL, the MIC (Enterococcus faecalis [2]) was 2 µg/mL (≈ 5.2 µM) and the MIC (Escherichia coli [3]) was greater than 128 µg/mL. The MIC (Enterococcus faecalis [4]) was 1 µg/mL (≈ 2.6 µM), the MIC (Staphylococcus aureus [9]) was 1 µg/mL (≈ 2.6 µM) and the IC50 [10] was 18 µg/mL (≈ 46.8 µM). For the same compound, the MIC (Staphylococcus aureus [11]) was 8 µg/mL (≈ 20.8 µM), the MIC (Escherichia coli [5]) was greater than 128 µg/mL and the IC50 [12] was 25 µg/mL (≈ 65.1 µM).
